Here are results for 18 molecules from patent publication US20230203041A1, “ANTAGONISTS OF THE ADENOSINE A2A RECEPTOR” (AdoRx Therapeutics Limited, priority 2020, published 2023).

In assay [1] the target is T1, human Adenosine A3 receptor (Homo sapiens, UniProt P0DMS8).
T1 sequence (P0DMS8 1-318): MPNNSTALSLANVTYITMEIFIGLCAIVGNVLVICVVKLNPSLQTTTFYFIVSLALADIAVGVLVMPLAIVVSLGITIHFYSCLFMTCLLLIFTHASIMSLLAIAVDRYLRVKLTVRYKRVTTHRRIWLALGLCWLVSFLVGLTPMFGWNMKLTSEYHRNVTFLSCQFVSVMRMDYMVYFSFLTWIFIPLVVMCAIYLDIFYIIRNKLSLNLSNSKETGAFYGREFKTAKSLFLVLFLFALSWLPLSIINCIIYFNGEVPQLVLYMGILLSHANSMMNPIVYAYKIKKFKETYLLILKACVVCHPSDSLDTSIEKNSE
Description: Adenosine receptor TR-FRET binding assay (CA200645 displacement), A3. Background: In TR-FRET formats the signal depends on donor and acceptor labels being close together.

The target of assay [2] is T2, human Adenosine A2a receptor (Homo sapiens, UniProt P29274).
T2 construct: expressed in transfected cells; host or cells: CHO cell membranes
Put plainly: Adenosine receptor TR-FRET binding assay (CA200645 displacement), A2a. The conditions noted are these: 100 nM CA200645, CHO cell membranes, 2 hours at room temperature.

For assay [3], the target named is T3, human Adenosine A1 receptor (Homo sapiens, UniProt P30542).
T3 sequence (P30542 1-326): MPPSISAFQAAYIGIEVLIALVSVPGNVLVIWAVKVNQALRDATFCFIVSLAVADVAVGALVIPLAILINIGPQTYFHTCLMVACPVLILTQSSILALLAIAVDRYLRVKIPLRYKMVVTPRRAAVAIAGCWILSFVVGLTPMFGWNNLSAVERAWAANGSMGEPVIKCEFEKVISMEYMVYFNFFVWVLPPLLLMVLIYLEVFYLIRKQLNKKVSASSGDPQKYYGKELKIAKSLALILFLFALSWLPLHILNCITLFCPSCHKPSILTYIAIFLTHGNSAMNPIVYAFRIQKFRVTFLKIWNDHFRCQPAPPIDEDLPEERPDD
Description: Adenosine receptor TR-FRET binding assay (CA200645 displacement), A1.

Another assay concerns human PBMCs. Put plainly: CD3/CD28 stimulated IL-2 release NECA reversal assay in human PBMCs.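 Note: dose-response as % inhibition where 100% equals no-NECA control wells with CD3/CD28.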 It is filed as cell-based. Conditions: PBMC, CD3/CD28 antibody stimulated, 1 uM NECA, 24 hours, IL-2 in culture supernatant. In a few lines: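 PBMCs from citrated donor blood, 50,000 cells/well on plate-bound CD3 antibody (1 ug/ml), with 1 ug/ml CD28 antibody, 1 uM NECA and antagonist at 0.003-10 μM final. After 24 h at 37° C, supernatant IL-2 was measured by MSD immunoassay.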

The target of assay [4] is T4, human Adenosine A2b receptor (Homo sapiens, UniProt P29275).
T4 construct: expressed in transfected cells; host or cells: CHO cell membranes
T4 sequence (P29275 1-332): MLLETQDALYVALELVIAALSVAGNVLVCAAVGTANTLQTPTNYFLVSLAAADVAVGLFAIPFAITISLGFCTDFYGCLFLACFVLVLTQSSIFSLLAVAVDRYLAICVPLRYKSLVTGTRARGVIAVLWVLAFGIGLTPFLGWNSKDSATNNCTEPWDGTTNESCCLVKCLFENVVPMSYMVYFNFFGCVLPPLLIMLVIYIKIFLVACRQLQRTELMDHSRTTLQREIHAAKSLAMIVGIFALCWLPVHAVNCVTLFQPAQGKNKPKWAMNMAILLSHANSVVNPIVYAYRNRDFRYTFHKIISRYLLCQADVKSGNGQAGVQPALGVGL
Description: Adenosine receptor TR-FRET binding assay (CA200645 displacement), A2b. The conditions noted are these: 30 nM CA200645, CHO cell membranes, 2 hours at room temperature.

Assay [5] deals with CD8+ T cells in human whole blood. Description: Measurement of pCREB in CD8+ T cells in human whole blood. It is filed as cell-based. Conditions: T-cell, 1 h; heparinised human whole blood, rolipram, 3 μM NECA, 60 min, phospho-CREB in CD8+ T cells by FACS. On the procedure: Heparinised human whole blood was pre-incubated at 37° C. with serial dilutions of A2a antagonists for 20 min. and the phosphodiesterase inhibitor rolipram to amplify the pCREB response. The adenosine receptor agonist NECA is then added at a final concentration of 3 μM and following a 60 min incubation the blood is fixed and red blood cells lysed. White blood cells are isolated, permeabilized and stained with directly conjugated fluorescent antibodies to phospho-CREB (Alexa Fluor 488) and CD8 (Alexa Fluor 647) and the level of phospho-CREB in CD8+ T cells is measured by FACS using a BD Accuri C6 Flow Cytometer.
(Flow cytometry measures light scatter and fluorescence of single cells or particles in a stream.)

SMILES strings stand for the structures. Some results are limits rather than exact numbers.

T2 sequence (P29274 whole entry): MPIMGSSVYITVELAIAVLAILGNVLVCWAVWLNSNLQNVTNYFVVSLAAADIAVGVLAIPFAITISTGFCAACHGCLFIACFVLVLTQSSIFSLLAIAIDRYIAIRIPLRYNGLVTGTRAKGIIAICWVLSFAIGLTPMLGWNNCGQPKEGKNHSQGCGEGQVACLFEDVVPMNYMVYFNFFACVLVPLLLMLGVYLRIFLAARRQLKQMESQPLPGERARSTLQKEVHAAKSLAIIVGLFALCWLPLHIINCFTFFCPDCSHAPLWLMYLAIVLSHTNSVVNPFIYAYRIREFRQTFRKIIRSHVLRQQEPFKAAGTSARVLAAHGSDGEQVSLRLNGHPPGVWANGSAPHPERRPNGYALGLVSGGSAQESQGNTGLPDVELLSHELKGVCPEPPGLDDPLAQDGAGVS

Turning to `Cc1cc(-c2c(-c3cccc(C#N)c3)nn3ccc(N[C@H]4C[C@H](O)C4)nc23)cc(Cl)n1` [Example 2.18], the Ki (in general, a measure of affinity in units of concentration, obtained from inhibition or displacement) in assay [1] was 2.43 µM; in assay [2], 0.0026 µM; in assay [3], 0.192 µM; in assay [4] it was 0.01 µM. Further, the IC50 (usually the point on the concentration scale where inhibition reaches its midpoint) came out at 0.046 µM with human PBMCs and 1.87 µM in assay [5].
Turning to `Cc1cc(-c2c(-c3cccc(C#N)c3)nn3ccc(N[C@H](C)C(C)(C)O)nc23)cc(Cl)n1` [Example 2.20], the Ki in assay [1] is over 1 µM; in assay [2], 0.0034 µM; in assay [3], 0.263 µM; in assay [4], 0.018 µM. Further, the half-inhibitory concentration (IC50) was determined as 0.068 µM in the assay on human PBMCs and 0.66 µM in assay [5].
For `Cc1cc(-c2c(-c3cccc(C#N)c3)nn3ccc(N4CCOC(CCN(C)C)C4)nc23)cc(Cl)n1` (stereo not drawn) [Example 2.21], the Ki in assay [1] was over 1 µM; in assay [2], 0.0046 µM; in assay [3], 0.178 µM; in assay [4], 0.019 µM. Also, the IC50 in the assay with human PBMCs was determined as 0.031 µM; in assay [5] it was 1.24 µM.
As for `Cc1cc(-c2c(-c3cccc(C#N)c3)nn3ccc(NCc4nnc[nH]4)nc23)cc(Cl)n1` [Example 2.23], the Ki in assay [1] is over 1 µM; in assay [2], 0.0064 µM; in assay [3], 0.055 µM; in assay [4], 0.003 µM. Further, the values for the 50% inhibitory concentration (IC50) (in the assay on human PBMCs; in assay [5]) were 0.024 µM and 0.57 µM, respectively.
In the case of `Cc1cc(-c2c(-c3cccc(C#N)c3)nn3ccc(NC[C@@H](C)O)nc23)cc(Cl)n1` [Example 3, 3-[3-(2-Chloro-6-methyl-4-pyridyl)-5-[[(2R)-2-hydroxypropyl]amino]pyrazolo[1,5-a]pyrimidin-2-yl]benzonitrile], the Ki in assay [1] was over 1 µM; in assay [2], 0.0006 µM; in assay [3], 0.074 µM; in assay [4], 0.001 µM. Further, the values for the 50% inhibitory concentration (IC50) (with human PBMCs; in assay [5]) were 0.017 µM and 0.75 µM, respectively.
As for `Cc1cc(-c2c(-c3cccc(C#N)c3)nn3ccc(NC[C@H](C)O)nc23)cc(Cl)n1` [Example 3.1], the Ki amounted to 2.6 µM in assay [1], 0.0022 µM in assay [2], 0.058 µM in assay [3] and 0.005 µM in assay [4]. Moreover, the IC50 was 0.023 µM with human PBMCs and 0.56 µM in assay [5].
For the molecule `Cc1cc(-c2c(-c3cccc(C#N)c3)nn3ccc(NCC4(O)CC4)nc23)cc(Cl)n1` [Example 3.4], the Ki in assay [1] was determined as 2.45 µM; in assay [2], 0.0004 µM; in assay [3] it was 0.056 µM; in assay [4], 0.002 µM. Further, the IC50 in the assay with human PBMCs was 0.1 µM; in assay [5] it was 0.26 µM.
Take `Cc1cc(-c2c(-c3cccc(C#N)c3)nn3ccc(NC4CCNCC4)nc23)cc(Cl)n1` [Example 4, 3-[3-(2-Chloro-6-methyl-4-pyridyl)-5-(4-piperidylamino)pyrazolo[1,5-a]pyrimidin-2-yl]benzonitrile]: the Ki in assay [1] was over 1 µM; in assay [2], 0.0001 µM; in assay [3] it was 0.015 µM; in assay [4], 0.003 µM. Further, the concentration for half-maximal inhibition (IC50) in the assay with human PBMCs is 0.008 µM; in assay [5], 1.57 µM.
Regarding `Cc1cc(-c2c(-c3cccc(C#N)c3)nn3ccc(N[C@@H]4CCCNC4)nc23)cc(Cl)n1` [Example 4.2], the Ki is over 1 µM in assay [1], 0.0012 µM in assay [2], 0.032 µM in assay [3] and 0.034 µM in assay [4]. The IC50 in the assay on human PBMCs came out at 0.054 µM; in assay [5] it was 2.03 µM.
`Cc1cc(-c2c(-c3cccc(C#N)c3)nn3ccc(NC[C@H]4COCCN4)nc23)cc(Cl)n1` [Example 4.5]: the Ki was over 1 µM in assay [1], 0.0042 µM in assay [2], 0.189 µM in assay [3] and 0.025 µM in assay [4]. The values for the IC50 (with human PBMCs; in assay [5]) were 0.012 µM and 1.06 µM, respectively.
As for `Cc1cc(-c2c(-c3cccc(C#N)c3)nn3ccc(C(=O)NC45CC(O)(C4)C5)nc23)cc(Cl)n1` [Example 5, 3-(2-Chloro-6-methyl-4-pyridyl)-2-(3-cyanophenyl)-N-(3-hydroxy-1-bicyclo[1.1.1]pentanyl)pyrazolo[1,5-a]pyrimidine-5-carboxamide], the Ki in assay [1] is over 1 µM; in assay [2], 0.0008 µM; in assay [3], 0.296 µM; in assay [4] it was 0.009 µM. Also, the values for the IC50 (with human PBMCs; in assay [5]) were 0.023 µM and 1.82 µM, respectively.
As for `Cc1cc(-c2c(-c3cccc(C#N)c3)nn3ccc(C(=O)NC(C)(C)C)nc23)cc(Cl)n1` [Example 5.1], the Ki was over 1 µM in assay [1], 0.0001 µM in assay [2], 0.477 µM in assay [3] and 0.016 µM in assay [4]. Moreover, the IC50 is 0.02 µM in the assay with human PBMCs and 2.86 µM in assay [5].
As for `Cc1cc(-c2c(-c3cccc(C#N)c3)nn3ccc(C(=O)NCC(C)(C)O)nc23)cc(Cl)n1` [Example 5.2], the inhibition constant Ki was over 1 µM in assay [1], 0.0002 µM in assay [2], 0.294 µM in assay [3] and 0.024 µM in assay [4]. The IC50 in the assay on human PBMCs was 0.004 µM; in assay [5] it was 0.28 µM.
`Cc1cc(-c2c(-c3cccc(C#N)c3)nn3ccc(C(N)=O)nc23)cc(Cl)n1` [Example 5.6]: the Ki in assay [1] was over 1 µM; in assay [2], 0.0046 µM; in assay [3], 0.303 µM; in assay [4], 0.016 µM. Besides, the IC50 in the assay with human PBMCs was found to be 0.016 µM; in assay [5], 8.54 µM.
With `Cc1cc(-c2c(-c3cccc(C#N)c3)nn3ccc(C(=O)N[C@@H](C)C(C)(C)O)nc23)cc(Cl)n1` [Example 6, 3-(2-Chloro-6-methyl-4-pyridyl)-2-(3-cyanophenyl)-N-[(1S)-2-hydroxy-1,2-dimethyl-propyl]pyrazolo[1,5-a]pyrimidine-5-carboxamide], the Ki in assay [1] is 0.945 µM; in assay [2], 0.0001 µM; in assay [3] it was 0.057 µM; in assay [4], 0.006 µM. The IC50 came to 0.002 µM in the assay on human PBMCs and 0.03 µM in assay [5].
Turning to `Cc1cc(-c2c(-c3cccc(C#N)c3)nn3ccc(C(=O)NCC4(O)CC4)nc23)cc(Cl)n1` [Example 6.2, 3-(2-Chloro-6-methyl-4-pyridyl)-2-(3-cyanophenyl)-N-[(1-hydroxycyclopropyl)methyl]pyrazolo[1,5-a]pyrimidine-5-carboxamide], the inhibition constant Ki turned out to be 2.31 µM in assay [1], 0.0003 µM in assay [2], 0.122 µM in assay [3] and 0.01 µM in assay [4]. Moreover, the results for the IC50 (with human PBMCs; in assay [5]) were 0.008 µM and 0.83 µM, respectively.
For the molecule `Cc1cc(-c2c(-c3cccc(C#N)c3)nn3ccc(C(=O)N[C@H](C)C(C)(C)O)nc23)cc(Cl)n1` [Example 6.4, 3-(2-Chloro-6-methyl-4-pyridyl)-2-(3-cyanophenyl)-N-[(1 R)-2-hydroxy-1,2-dimethyl-propyl]pyrazolo[1,5-a]pyrimidine-5-carboxamide], the inhibition constant (Ki) was 1.82 µM in assay [1], 0.0006 µM in assay [2], 0.402 µM in assay [3] and 0.03 µM in assay [4]. For the same molecule, the IC50 with human PBMCs is 0.006 µM; in assay [5], 0.43 µM.
As to `Cc1cc(-c2c(-c3cccc(C#N)c3)nn3ccc(C(=O)NCC(C)(O)CO)nc23)cc(Cl)n1` (stereo not drawn) [Example 6.9, 3-(2-Chloro-6-methyl-4-pyridyl)-2-(3-cyanophenyl)-N-(2,3-dihydroxy-2-methyl-propyl)pyrazolo[1,5-a]pyrimidine-5-carboxamide], the Ki in assay [1] is over 1 µM; in assay [2], 0.0009 µM; in assay [3] it was 0.232 µM; in assay [4] it was 0.002 µM. Moreover, the figures for the IC50 (with human PBMCs; in assay [5]) were 0.01 µM and 0.16 µM, respectively.
